According to US20210100905A1, “APPLICATION OF COMPOUND OR TRADITIONAL CHINESE MEDICINE EXTRACT IN PREPARATION OF NUCLEIC ACID DELIVERY AGENT, AND RELATED PRODUCTS” (INSTITUTE OF BASIC MEDICAL SCIENCES CHINESE ACADEMY OF …, priority 2018, published 2021):

How the values were obtained:
[1] = test system: A549 cell line; test: Fluorescence in situ hybridization (FISH) of small RNA; assay type: cell-based, human; settings: FIG. 12
Method: 3.3.3 Fluorescence in Situ Hybridization (FISH) of Small RNA
2) Fix in 4% paraformaldehyde (500 μl/well, prepared in PBS buffer) at room temperature for 20 min.
4) PBS was removed, and cells were permeabilized with PK (proteinase K) buffer at room temperature for 10 min.
9) The culture plate was placed in a hybridization cassette in hybridization buffer (50% formamide, 5×SSC, 5×Denharts, 250 μg/mL yeast RNA, 500 μg/mL herring sperm DNA) and pre-incubated at room temperature for 1 hour.
10) Add RNA probes (HJT-sRNA-m7 probe: 5′-[…]-3′ (SEQ ID NO: 27), Scrambled probe: 5′-[…]-3′ (SEQ ID NO: 28), U6 probe: 5′-TTTGCGTGTCATCCTTGCG-3′ (SEQ ID NO: 29)) to the hybridization buffer (the concentration of RNA probes was 0.1-0.2 ng/μl), denature at 85° C. for 5 min, and quickly place it on ice. […]
Mixtures of soybean PC, lipid No. 11 (18:0/18:2) and lipid No. 12 (16:0/18:2), and various small RNA(see below Table 3) were prepared by the reverse evaporation method and then added into A549 cell line (the final concentration of sRNA was 200 nM); the negative control group (control) was directly added with the same concentration of sRNA; the positive control group (RNAimax) was transfected with Lipofectamine RNAimax (transfection reagent 6 μ/well). The abundance of sRNA in the cells was detected by Taqman probe after 3 hours, and the relative expression level of sRNA was calculated by 2-ΔCt method.

[2] = In vivo delivery of lipid nucleic acid mixture by gavage, RT-qPCR in blood and lung; design: species or system C57 mice; settings: FIG. 14, 6 hours, whole blood and lung
Method: 1. Preparation of lipid nucleic acid mixture: the mixture of lipid No. 11 or No. 12 with nucleic acid, and the mixture of the lipid combination of No. 1/2/4/9/14/18/19/20/21/22/23/24/25/26/27/28/29/30/32, No. 3/8/10/11/12/13, and No. 6/15/16/17/31 with nucleic acid were prepared by reverse evaporation and boiling method (refer to steps 2.1-2.2).
2. Gavage were performed on 6-8 weeks old male C57 mice: 200 μl/aminal, grouped as follows:
3. Sample collection: 6 hours after gavage, mouse whole blood (500 μl) and lung (110 mg) were collected by 1.5 mL TRIzol-LS or 3 mL TRIzol, respectively, homogenized and then frozen under −80° C. for storage.
4. […]

Row | Structure (SMILES) | localization of delivered nucleic acid (FISH) [1] | entry of HJT-sRNA-m7 into blood and lung [2]
1 | CCCCC/C=C\C/C=C\CCCCCCCC(=O)O[C@H](COC(=O)CCCCCCCCCCCCCCC)COP(=O)([O-])OCC[N+](C)(C)C [No. 12, (2-{[(2R)-3-(hexadecanoyloxy)-2-[(9Z,12Z)-octadeca-9,12-dienoyloxy]propylphosphonato]oxy}ethyl) trimethylazanium] | entered into cytoplasm and were primarily localized in cytoplasm | could promote entry of small fragments of nucleic acids into the blood and lung
2 | CCCCC/C=C\C/C=C\CCCCCCCC(=O)O[C@H](COC(=O)CCCCCCCCCCCCCCCCC)COP(=O)([O-])OCC[N+](C)(C)C [No. 11, trimethyl(2-{[(2R)-2-[(9Z, 12Z)-octadeca-9,12-dienoyloxy]-3-(octadecanoyloxy)propyl-phosphonato]oxy}ethyl) azanium] | entered into cytoplasm and were primarily localized in cytoplasm | could promote entry of small fragments of nucleic acids into the blood and lung
